Legend:
[1] = test system: injured left common carotid artery; assay: In vivo MRI of common carotid arteries in balloon-injured living rat; conditions: for MRI signal in the injured left common carotid artery (image): 2 ml of 24 mM (about 160 μM/kg) via left femoral vein, T1 weighted spin echo, FIG. 6; for MRI signal intensity of injured common carotid artery versus normal common carotid artery: 2 ml of 24 mM via left femoral vein, time course, own agent stated at ten minutes after administration, FIG. 7
Protocol: This example is to evaluate the imaging capability of the contrast agent of the present invention by means of an in vivo experiment using a living rat. A rat (weighing about 300 g) was anesthetized with pentobarbital, and inserted with a balloon-tip catheter through the left femoral artery [FIG. 5 (a), 1]. The left common carotid artery was scraped by the balloon to injure the endothelia thereof. Then the rat was injected, through the left femoral vein [FIG. 5 (a), 2], with 2 ml (about 160 μM/kg) of physiological aqueous solution of the contrast agent as prepared in Example 1 (24 mM). At predetermined lapses of time, images were taken by MRI (the T1 weighted spin echo method) around the right and left common carotid artery [the cross section along the line N-N in FIG. 5 (a)]. The rat was supplementally anesthetized in order to keep it motionless during the imaging operation. For comparison, an evaluation experiment was also carried out in the same manner with a conventional agent, DTPA-Gd. […] In FIG. 6, by “injured” is designated the left common carotid artery injured by the balloon, corresponding to 4 in FIG. 5 (b), while by “intact” is designated the right common carotid artery, which is normal and corresponds to 5 in FIG. 5 (b). The numeral 3 in FIG. 5 (b) denotes the bronchium.

[2] = test system: exfoliated endothelial site (balloon-injured left carotid artery); assay: Ex vivo MRI of extirpated carotid arteries after injection into balloon-injured living rat; format: in vivo; conditions: 2 ml of 24 mM via right jugular vein, FIG. 3
Protocol: The contrast agent of the present invention was evaluated for imaging capability by means of an ex vivo experiment using a living rat. A balloon-tip catheter was passed through the left femoral artery of the rat to injure the carotid artery with the balloon. Then 2 ml of aqueous saline solution containing 24 mM of the contrast agent (EBDTPA-Gd prepared in Example 1) was injected to the rat through the right jugular vein. After a predetermined period of time (10, 30 or 120 minutes), the right carotid artery and the left carotid artery were extirpated, developed, washed with a physiological saline, and then subjected to evaluation by MRI. The MRI evaluation was carried out by imaging the extirpated carotid artery sections, under the condition of being added with one or two droplets of physiological saline solution, by the T1 weighted spin echo method. In FIG. 3, by “injured” is denoted the exfoliated endothelial site (the left carotid artery), which had been injured by the balloon, while “intact” denotes the normal endothelial site (the right carotid artery). The photographs of the developed vascular samples as presented in FIG. 3 reveal purple coloring with intensities corresponding to the MRI signal intensities described later. The pictures (A) as presented in FIG. 3 below the photographs of the developed vascular samples illustrate the states of the samples prepared for the study by MRI. As illustrated, each carotid artery section was developed on a glass plate and covered with one or two droplets of physiological saline solution, for the MRI study.

[3] = test system: exfoliated endothelial site of aortic vascular section; assay: In vitro MRI imaging capability on aortic vascular section extirpated from a pig; conditions: pig aortic section immersed in 10 mM aqueous solution for ten seconds
Protocol: For the contrast agent as synthesized (prepared) in Example 1, evaluation of in vitro imaging capability by MRI was carried out with an aortic vascular section extirpated from a pig, as a specimen.
The aortic vascular section extirpated from a pig was spread in a rectangular shape measuring about 2 cm×3 cm to prepare a vascular section sample. The endothelial surface of the left half of the sample was exfoliated with a scalpel. The sample was then immersed in a 10 mM aqueous solution of the contrast agent for ten seconds. Following thorough washing with physiological saline solution, the sample was subjected to the evaluation by MRI as well as by visual observation.
FIG. 2 (A) is a picture taken with a digital camera, which corresponds to the visual observation. […] FIG. 2 (B) is an MRI image (by the T1 weighted spin echo method).

[4] = Gd content remaining in various organs of the rat (ICP); format: in vivo
Protocol: This was also verified by measuring Gd (gadolinium) content remaining in various organs of the rat, in which the measurement was carried out as follows: The rat was administered with 1 ml heparin and a blood sample was taken from the rat. Then physiological saline solution was circulated throughout the rat, and the various organs were extirpated from the rat. To each organ and the blood sample was added 3 ml nitric acid, followed by standing for one hour. The resultant was added with 25% hydrogen peroxide aqueous solution and then allowed to stand overnight at room temperature. The resultant solution was warmed and added with 6 ml water. The insolubles were removed by filtration, and the filtrate was analyzed by ICP.

colour of urine (excretion through the kidney) ([4]; rat, ten minutes after the administration) | Structure (SMILES) | MRI signal in the injured left common carotid artery (image) [1] | MRI signal intensity of injured common carotid artery versus normal common carotid artery [1] | difference in MRI signal intensity between exfoliated site and normal site ([2]; after 120 minutes) | difference in MRI signal intensity between exfoliated endothelial site and normal site ([2]; after thirty minutes) | MRI signal intensity of the injured site relative to the normal site ([2]; ten minutes from the injection) | visual observation of the exfoliated endothelial site ([3]; FIG. 2(A)) | MRI signal intensity at the exfoliated endothelial site relative to the normal endothelial site ([3]; T1 weighted spin echo, FIG. 2(C)) | Gd content remaining in various organs ([4]; rat organs and blood, ICP, FIG. 4)
 | O=C([O-])CN(CCN(CC(=O)[O-])CC(=O)O)CCN(CC(=O)[O-])CC(=O)O.[Gd+3] [DTPA-Gd, reference compound] | no such signal was observed | no substantial difference |  |  |  |  |  | 
colored purple | Cc1cc(-c2ccc(NC(=O)CN(CCN(CCN(CC(=O)O)CC(=O)O)CC(=O)O)CC(=O)O)c(C)c2)ccc1N=Nc1ccc2c(S(=O)(=O)O)cc(S(=O)(=O)O)c(N)c2c1O [contrast agent of the present invention] | clear MRI signal | higher than that for the normal right common carotid artery | no substantial difference | the difference in the signal intensity therebetween shortened | 1.74 times | colored blue | about ten | substantially no remaining Gd in organs other than the blood and kidney

Source: patent US20060153773A1, “Contrast medium for mri” (priority 2003, published 2006)
